Results from article PMC6773865, “Functional recruitment of dynamin requires multimeric interactions for efficient endocytosis” (Nature Communications, 2019).

What was measured:
[1] = test system: rat brain lysate proteins; assay: Affinity isolation (pull-down) from rat brain lysate, silver stain and proteomics; format: binding; settings: for proteins pulled down (silver stain, words): biotinylated peptide, rat brain lysate, streptavidin beads; for enrichment of co-precipitated proteins by mass spectroscopy: in comparison to control conditions (absence of peptide)
Experimental: Brains were obtained from adult (2–3 months old) Sprague-Dawley rats raised in the animal facility of Bordeaux University B 33 063 917. Animals were killed by decapitation after isoflurane anaesthesia (5%, 3 min), in accordance with the European 2010/63/EU directive and approved by the Bordeaux University Ethics Committee (CE50). Frozen brains (2 × ~1.5 g) were thawed in 20 mL ice cold modified RIPA buffer (50 mM Tris pH 7.5, 150 mM NaCl, 0.1% SDS, 0.5% sodium deoxycholate, 1% NP-40, 1 mM EDTA) containing a protease inhibitor mixture (1:1000; Protease Inhibitor Cocktail set III; Calbiochem) for about 5 min and cut into small pieces. The tissues were homogenised using a glass/teflon homogeniser. Homogenates were centrifuged at 7500 × g for 25 min at 4 °C to remove cell debris. The supernatant was aliquoted and stored at −80 °C until the affinity-based isolation (pull-down) experiments were performed. Streptavidin-coated beads (Dynabeads M-280, Life Technologies) were washed three times and incubated for 15 min at room temperature (RT) in modified RIPA buffer supplemented with 0.1% BSA. Rat brain lysates were incubated with the biotinylated peptide (or biotin as a negative control) for 10 min at RT before addition of the beads and further incubation for 5 min at RT. Beads were washed five times in RIPA buffer and transferred into new eppendorf tubes. For elution, acetylated ligands were added in excess to the bead suspension and incubated for 5 min at RT. The supernatant was kept for proteomics analysis and electrophoresis followed by silver staining after addition of fresh 6× sample buffer (ProteoSilver Silver Stain Kit, Sigma-Aldrich).
Samples were solubilized in Laemlli buffer and were deposited in triplicate onto SDS-PAGE. Separation was stopped once proteins have entered resolving gel. After colloidal blue staining, bands were cut out from the SDS-PAGE gel and subsequently cut in 1 mm × 1 mm gel pieces. Gel pieces were destained in 25 mM ammonium bicarbonate 50% MeCN, rinsed twice in ultrapure water and shrunk in MeCN for 10 min. After MeCN removal, gel pieces were dried at room temperature, covered with the trypsin solution (10 ng/µl in 50 mM NH4HCO3), rehydrated at 4 °C for 10 min, and finally incubated overnight at 37 °C. Spots were then incubated for 15 min in 50 mM NH4HCO3 at room temperature with rotary shaking. The supernatant was collected, and an H2O/MeCN/HCOOH (47.5:47.5:5) extraction solution was added onto gel slices for 15 min. The extraction step was repeated twice. Supernatants were pooled and dried in a vacuum centrifuge to a final volume of 25 µL. Digests were finally resuspended in 25 µl of formic acid (5%, v/v) and stored at −20 °C.
Peptide mixture was analysed on a Ultimate 3000 nanoLC system (Dionex, Amsterdam, The Netherlands) coupled to a nanospray LTQ-Orbitrap XL mass spectrometer (ThermoFinnigan, San Jose, CA). Ten microliters of peptide digests were loaded onto a 300-µm-inner diameter × 5-mm C18 PepMap^TM trap column (LC Packings) at a flow rate of 30 µL/min. The peptides were eluted from the trap column onto an analytical […] × 15-cm C18 Pep-Map column (LC Packings) with a 4–40% linear gradient of solvent B in 35 min (solvent A was 0.1% formic acid in 5% MeCN, and solvent B was 0.1% formic acid in 80% MeCN). The separation flow rate was set at 300 nL/min. The mass spectrometer operated in positive ion mode at a 2-kV needle voltage. Data were acquired in a data-dependent mode. Mass spectrometry (MS) scans (m/z 300–1700) were recorded at a resolution of R = 70,000 (@ m/z 400) and an AGC target of 5 × 10^5 ions collected within 500 ms. Dynamic exclusion was et to 30 s and top 6 ions were selected from fragmentation in CID mode. MS/MS scans with a target value of 1 × 10^4 ions were collected in the ion trap with a maximum fill time of 200 ms. Additionally, only +2 and +3 charged ions were selected for fragmentation. […]

[2] = molecular target: T1, Ntr-bSUMO-amphSH3 complex (tetrameric, neutravidin) (Mus musculus, UniProt Q7TQF7); assay: SPR, tetrameric Ntr-bSUMO-amphSH3 on immobilized peptides; format: binding, murine; settings: in the tested concentration range
T1 construct: murine Ampiphysin1 SH3 domain residues 607–686); made in house; host or cells: E. coli BL21 (DE3) co-expressing BirA, with biotin
T1 sequence (Q7TQF7 607-686): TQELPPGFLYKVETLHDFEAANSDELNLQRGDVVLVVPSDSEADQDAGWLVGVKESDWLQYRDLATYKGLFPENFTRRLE
T1 sequence (P02701 25-152 partner): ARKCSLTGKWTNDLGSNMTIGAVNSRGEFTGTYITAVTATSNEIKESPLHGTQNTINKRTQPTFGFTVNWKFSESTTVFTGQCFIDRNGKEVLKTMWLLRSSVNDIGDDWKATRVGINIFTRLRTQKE

[3] = pull-down from rat brain lysate, LC-MS/MS, vs no peptide control

**Q.** Which “proteins pulled down (silver stain, words)” value [1] does the source give for `CC(=O)N[C@@H](Cc1ccc(O)cc1)C(=O)N[C@@H](CCCCn1cc(CCC(=O)NCCCOCCOCCOCCCNC(=O)CCC(=O)NCCCOCCOCCOCCCNC(=O)CCC(=O)NCCCOCCOCCOCCCNC(=O)CCC(=O)N2CCC[C@H]2C(=O)N2CCC[C@H]2C(=O)N2CCC[C@H]2C(=O)N[C@@H](CCC(N)=O)C(=O)N[C@H](C(=O)N2CCC[C@H]2C(=O)N[C@@H](CO)C(=O)N[C@@H](CCCNC(=N)N)C(=O)N2CCC[C@H]2C(=O)N[C@@H](CC(N)=O)C(=O)N[C@@H](CCCNC(=N)N)C(=O)N[C@@H](C)C(=O)N2CCC[C@H]2C(=O)N2CCC[C@H]2C(=O)NCC(N)=O)C(C)C)nn1)C(=O)NCCCOCCOCCOCCCNC(=O)CCC(=O)NCCCOCCOCCOCCCNC(=O)CCC(=O)NCCCOCCOCCOCCCNC(=O)CCC(=O)N1CCC[C@H]1C(=O)N1CCC[C@H]1C(=O)N1CCC[C@H]1C(=O)N[C@@H](CCC(N)=O)C(=O)N[C@H](C(=O)N1CCC[C@H]1C(=O)N[C@@H](CO)C(=O)N[C@@H](CCCNC(=N)N)C(=O)N1CCC[C@H]1C(=O)N[C@@H](CC(N)=O)C(=O)N[C@@H](CCCNC(=N)N)C(=O)N[C@@H](C)C(=O)N1CCC[C@H]1C(=O)N1CCC[C@H]1C(=O)NCC(N)=O)C(C)C` [dD15-N] here?
**A.** isolated a number of proteins

**Q.** What about the “enrichment of co-precipitated proteins by mass spectroscopy” value [1] of the same molecule?
**A.** highly enriched in CME related proteins

**Q.** What about the “Max fold change, AP2a1” value [1, 3] of the same molecule?
**A.** 28.6

**Q.** What about the “Max fold change, AP2a2” value [1, 3] of the same molecule?
**A.** 13.8

**Q.** What about the “Max fold change, AP2b1” value [1, 3] of the same molecule?
**A.** 40.0

**Q.** And the “Max fold change, AP2m1” value [1, 3]?
**A.** 25.5

**Q.** What about the “Max fold change, Actg1” value [1, 3] of the same molecule?
**A.** 2.2

**Q.** What about the “Max fold change, Actg2” value [1, 3] of the same molecule?
**A.** 2.3

**Q.** And the “Max fold change, Amphiphysin1” value [1, 3]?
**A.** 40.7

**Q.** What about the “Max fold change, Amy1a” value [1, 3] of the same molecule?
**A.** 2.8

**Q.** And the “Max fold change, Appbp2” value [1, 3]?
**A.** 20.8

**Q.** What about the “Max fold change, Atp1a3” value [1, 3] of the same molecule?
**A.** 33.4

**Q.** What about the “Max fold change, BIN1 (Amph2)” value [1, 3] of the same molecule?
**A.** 70.2

**Q.** And the “Max fold change, CD2-ap” value [1, 3]?
**A.** 124.5

**Q.** And the “Max fold change, CHC” value [1, 3]?
**A.** 22.7

**Q.** And the “Max fold change, Calcoco1” value [1, 3]?
**A.** 11.9

**Q.** And the “Max fold change, Capza1” value [1, 3]?
**A.** 23.0

**Q.** What about the “Max fold change, Dnm1” value [1, 3] of the same molecule?
**A.** 27.4

**Q.** And the “Max fold change, Endophilin-A1” value [1, 3]?
**A.** 53.5

**Q.** What about the “Max fold change, Endophilin-A2” value [1, 3] of the same molecule?
**A.** 1.7

**Q.** And the “Max fold change, Eps15l1” value [1, 3]?
**A.** 196.9

**Q.** And the “Max fold change, Hspa5” value [1, 3]?
**A.** 4.1

**Q.** What about the “Max fold change, Hspa8” value [1, 3] of the same molecule?
**A.** 15.6

**Q.** And the “Max fold change, Hspa9” value [1, 3]?
**A.** 42.1

**Q.** What about the “Max fold change, Intersectin-1” value [1, 3] of the same molecule?
**A.** 60.7

**Q.** What about the “Max fold change, Intersectin-2” value [1, 3] of the same molecule?
**A.** 118.9

**Q.** What about the “Max fold change, Rundc3a” value [1, 3] of the same molecule?
**A.** 16.0

**Q.** And the “Max fold change, SH3d19” value [1, 3]?
**A.** 42.9

**Q.** And the “Max fold change, SH3kbp1/CIN85” value [1, 3]?
**A.** 207.5

**Q.** And the “Max fold change, SNX18” value [1, 3]?
**A.** 16.1

**Q.** And the “Max fold change, Tuba1a” value [1, 3]?
**A.** 13.3

**Q.** And the “Max fold change, Tuba4a” value [1, 3]?
**A.** 14.5

**Q.** What about the “Max fold change, Tubb2a” value [1, 3] of the same molecule?
**A.** 75.4

**Q.** What about the “Max fold change, Tubb3” value [1, 3] of the same molecule?
**A.** 1.2

**Q.** And the “Max fold change, Tubb4a” value [1, 3]?
**A.** 43.4

**Q.** And the “Max fold change, Tubb5” value [1, 3]?
**A.** 18.0

**Q.** And the “Max fold change, Ubc” value [1, 3]?
**A.** 1.2

**Q.** For “Ac-YPPPQVPSRPNRAPPG-NH2 [D15, reference compound]”, which “binding of Ntr-bSUMO-amphSH3” value [2] is on record?
**A.** no binding was observed

**Q.** And the “proteins pulled down (silver stain, words)” value [1]?
**A.** unable to pull down any detectable amount of protein

**Q.** And the “enrichment of co-precipitated proteins by mass spectroscopy” value [1]?
**A.** failed to show any significant enrichment

**Q.** And the “Max fold change, BIN1 (Amph2)” value [1, 3]?
**A.** 0.163

**Q.** And the “Max fold change, CD2-ap” value [1, 3]?
**A.** 0.01

**Q.** What about the “Max fold change, Endophilin-A1” value [1, 3] of the same molecule?
**A.** 0.001

**Q.** What about the “Max fold change, Intersectin-2” value [1, 3] of the same molecule?
**A.** 0.944

**Q.** What about the “Max fold change, SH3d19” value [1, 3] of the same molecule?
**A.** 0.232

**Q.** What about the “Max fold change, SH3kbp1/CIN85” value [1, 3] of the same molecule?
**A.** 0.205

**Q.** And the “Max fold change, any SH3 domain-containing protein” value [1, 3]?
**A.** < 1
